Measurements: ChEMBL document CHEMBL5465560, “Selectivity Literature for EUbOPEN Chemogenomic Library” (2024)

Columns and labels:
[1] = molecular target: Serine/threonine-protein kinase 26 (Homo sapiens, UniProt Q9P289); test: Selectivity interaction (KinomeScan (DiscoverX)) EUB0000229b STK26; conditions: at 10 µM
[2] = molecular target: BDNF/NT-3 growth factors receptor (Homo sapiens) (UniProt Q16620); test: Selectivity interaction (Millipore kinase profiler) EUB0000124b NTRK2; conditions: at 10 µM
[3] = molecular target: T1, Serine/threonine-protein kinase 3 (Homo sapiens) (UniProt Q13188); test: Selectivity interaction (ActivX KiNativ screen (kinase selectivity in THP-1 cell lysates)) EUB0000639a STK3; assay type: subcellular; conditions: lysate
T1 sequence (whole entry): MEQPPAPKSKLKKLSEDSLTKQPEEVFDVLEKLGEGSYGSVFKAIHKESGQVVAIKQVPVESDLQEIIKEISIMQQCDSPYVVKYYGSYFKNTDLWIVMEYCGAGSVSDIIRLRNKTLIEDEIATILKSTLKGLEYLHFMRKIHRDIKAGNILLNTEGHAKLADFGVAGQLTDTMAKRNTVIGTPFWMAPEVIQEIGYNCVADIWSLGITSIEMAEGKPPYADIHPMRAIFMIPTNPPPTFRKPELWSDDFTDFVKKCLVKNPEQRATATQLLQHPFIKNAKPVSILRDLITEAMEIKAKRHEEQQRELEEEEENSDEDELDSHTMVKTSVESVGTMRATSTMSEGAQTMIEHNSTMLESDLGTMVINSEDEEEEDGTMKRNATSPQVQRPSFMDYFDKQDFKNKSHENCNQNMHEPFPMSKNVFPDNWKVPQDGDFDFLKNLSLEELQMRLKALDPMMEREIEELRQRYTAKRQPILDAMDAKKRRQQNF

[4] = molecular target: Phosphatidylinositol 3-kinase catalytic subunit type 3 (Homo sapiens, UniProt Q8NEB9); test: Selectivity interaction (ActivX KiNativ screen (kinase selectivity in THP-1 cell lysates)) EUB0000639a PIK3C3; assay type: subcellular; conditions: lysate
[5] = molecular target: Serine/threonine-protein kinase MARK2 (Homo sapiens) (UniProt Q7KZI7); test: Selectivity interaction (KinomeScan (DiscoverX)) EUB0000607a MARK2; conditions: at 10 µM
[6] = molecular target: T2, Ephrin type-B receptor 3 (Homo sapiens) (UniProt P54753); test: Selectivity interaction (SelectScreen profiling (Invitrogen)) EUB0000607a EPHB3; conditions: at 2 µM
T2 sequence (whole entry): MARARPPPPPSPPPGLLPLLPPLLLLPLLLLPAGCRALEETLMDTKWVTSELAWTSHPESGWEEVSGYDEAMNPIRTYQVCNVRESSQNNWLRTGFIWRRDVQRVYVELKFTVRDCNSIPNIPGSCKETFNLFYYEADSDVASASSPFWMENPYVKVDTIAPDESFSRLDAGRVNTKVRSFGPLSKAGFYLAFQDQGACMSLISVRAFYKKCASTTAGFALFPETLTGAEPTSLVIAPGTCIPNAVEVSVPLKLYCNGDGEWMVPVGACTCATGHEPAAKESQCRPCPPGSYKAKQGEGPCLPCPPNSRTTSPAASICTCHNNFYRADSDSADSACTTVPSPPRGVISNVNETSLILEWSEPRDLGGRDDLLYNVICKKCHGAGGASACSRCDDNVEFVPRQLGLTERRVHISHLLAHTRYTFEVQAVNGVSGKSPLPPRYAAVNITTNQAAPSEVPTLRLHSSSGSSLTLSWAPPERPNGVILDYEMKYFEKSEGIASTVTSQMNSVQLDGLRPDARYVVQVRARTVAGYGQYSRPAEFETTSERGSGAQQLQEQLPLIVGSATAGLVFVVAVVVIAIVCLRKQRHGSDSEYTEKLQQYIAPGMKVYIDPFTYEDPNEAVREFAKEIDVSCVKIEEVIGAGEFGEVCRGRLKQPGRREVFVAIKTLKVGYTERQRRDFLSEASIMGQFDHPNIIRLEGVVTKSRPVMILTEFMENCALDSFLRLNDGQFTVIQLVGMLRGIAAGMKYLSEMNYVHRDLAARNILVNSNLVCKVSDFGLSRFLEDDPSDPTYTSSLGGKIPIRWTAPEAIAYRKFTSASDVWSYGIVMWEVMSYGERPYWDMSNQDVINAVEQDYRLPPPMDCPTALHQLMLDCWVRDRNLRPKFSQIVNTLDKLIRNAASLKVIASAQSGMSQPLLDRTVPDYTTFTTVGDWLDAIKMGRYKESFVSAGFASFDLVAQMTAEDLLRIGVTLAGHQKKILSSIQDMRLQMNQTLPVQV

[7] = molecular target: T3, Mitogen-activated protein kinase 15 (Homo sapiens) (UniProt Q8TD08); test: Selectivity interaction (KinomeScan (DiscoverX)) EUB0001049a MAPK15; conditions: at 1 µM
T3 sequence (whole entry): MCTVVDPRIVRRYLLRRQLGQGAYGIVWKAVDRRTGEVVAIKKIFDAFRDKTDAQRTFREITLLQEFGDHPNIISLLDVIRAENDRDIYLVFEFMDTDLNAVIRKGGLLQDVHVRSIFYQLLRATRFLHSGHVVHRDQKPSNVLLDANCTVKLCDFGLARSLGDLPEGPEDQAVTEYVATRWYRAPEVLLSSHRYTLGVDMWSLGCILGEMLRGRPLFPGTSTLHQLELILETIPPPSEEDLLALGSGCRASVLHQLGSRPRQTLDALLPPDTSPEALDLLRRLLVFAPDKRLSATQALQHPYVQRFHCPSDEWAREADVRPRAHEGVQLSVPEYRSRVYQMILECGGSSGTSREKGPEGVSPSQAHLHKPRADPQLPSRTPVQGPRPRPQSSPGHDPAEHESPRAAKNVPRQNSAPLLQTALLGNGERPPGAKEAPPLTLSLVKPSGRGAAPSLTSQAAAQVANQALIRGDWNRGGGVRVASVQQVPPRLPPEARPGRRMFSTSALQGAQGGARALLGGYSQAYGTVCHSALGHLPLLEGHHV

[8] = molecular target: Mitogen-activated protein kinase kinase kinase 20 (Homo sapiens) (UniProt Q9NYL2); test: Selectivity interaction (KinomeScan (DiscoverX)) EUB0000595a MAP3K20; conditions: at 10 µM
[9] = molecular target: Receptor tyrosine-protein kinase erbB-3 (Homo sapiens) (UniProt P21860); test: Selectivity interaction (KinomeScan (DiscoverX)) EUB0000045b ERBB3
[10] = system: Tyrosine-protein kinase ABL1 (Homo sapiens), P00519 [H396P]; test: Selectivity interaction (KinomeScan (DiscoverX)) EUB0000045b ABL1; conditions: at 1 µM
[11] = molecular target: Casein kinase I isoform delta (Homo sapiens, UniProt P48730); test: Selectivity interaction (Kinase panel (literature)) EUB0001199aCl CSNK1D; conditions: at 1 µM
Chain of Casein kinase I isoform delta (P48730 whole entry, looked up, canonical isoform): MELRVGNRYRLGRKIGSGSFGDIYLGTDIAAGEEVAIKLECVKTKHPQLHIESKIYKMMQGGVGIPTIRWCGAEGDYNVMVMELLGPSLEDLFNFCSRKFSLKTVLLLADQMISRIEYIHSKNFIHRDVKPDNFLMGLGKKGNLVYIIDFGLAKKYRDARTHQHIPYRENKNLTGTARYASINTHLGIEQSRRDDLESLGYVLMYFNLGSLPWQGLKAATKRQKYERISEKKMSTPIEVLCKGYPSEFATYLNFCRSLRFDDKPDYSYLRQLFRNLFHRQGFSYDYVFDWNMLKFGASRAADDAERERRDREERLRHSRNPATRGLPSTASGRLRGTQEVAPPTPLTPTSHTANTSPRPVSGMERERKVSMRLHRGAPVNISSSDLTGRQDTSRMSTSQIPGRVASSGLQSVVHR

Chain of Phosphatidylinositol 3-kinase catalytic subunit type 3 (Q8NEB9 whole entry): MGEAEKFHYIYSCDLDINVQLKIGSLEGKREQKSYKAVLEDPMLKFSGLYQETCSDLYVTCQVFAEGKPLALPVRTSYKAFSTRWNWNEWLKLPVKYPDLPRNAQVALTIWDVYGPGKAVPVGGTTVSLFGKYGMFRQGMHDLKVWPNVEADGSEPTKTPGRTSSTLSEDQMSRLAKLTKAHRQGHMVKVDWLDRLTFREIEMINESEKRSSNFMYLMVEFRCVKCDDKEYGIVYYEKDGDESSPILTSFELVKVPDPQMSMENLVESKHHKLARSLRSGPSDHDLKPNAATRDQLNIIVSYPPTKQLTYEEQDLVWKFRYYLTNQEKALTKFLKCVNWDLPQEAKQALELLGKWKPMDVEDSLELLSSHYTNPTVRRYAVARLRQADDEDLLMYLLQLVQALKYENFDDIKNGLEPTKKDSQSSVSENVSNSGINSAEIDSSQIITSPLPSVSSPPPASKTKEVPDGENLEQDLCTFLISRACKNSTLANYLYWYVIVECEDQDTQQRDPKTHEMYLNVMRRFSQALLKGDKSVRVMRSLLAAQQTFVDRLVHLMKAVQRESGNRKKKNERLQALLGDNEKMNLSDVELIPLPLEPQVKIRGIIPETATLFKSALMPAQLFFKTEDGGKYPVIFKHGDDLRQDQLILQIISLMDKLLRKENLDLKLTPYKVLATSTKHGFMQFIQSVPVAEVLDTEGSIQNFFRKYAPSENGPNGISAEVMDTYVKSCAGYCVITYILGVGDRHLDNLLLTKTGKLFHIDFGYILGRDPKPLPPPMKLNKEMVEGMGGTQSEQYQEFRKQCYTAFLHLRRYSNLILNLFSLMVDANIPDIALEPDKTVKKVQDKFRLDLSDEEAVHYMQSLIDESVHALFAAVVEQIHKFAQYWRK
Chain of Receptor tyrosine-protein kinase erbB-3 (Homo sapiens) (P21860 whole entry): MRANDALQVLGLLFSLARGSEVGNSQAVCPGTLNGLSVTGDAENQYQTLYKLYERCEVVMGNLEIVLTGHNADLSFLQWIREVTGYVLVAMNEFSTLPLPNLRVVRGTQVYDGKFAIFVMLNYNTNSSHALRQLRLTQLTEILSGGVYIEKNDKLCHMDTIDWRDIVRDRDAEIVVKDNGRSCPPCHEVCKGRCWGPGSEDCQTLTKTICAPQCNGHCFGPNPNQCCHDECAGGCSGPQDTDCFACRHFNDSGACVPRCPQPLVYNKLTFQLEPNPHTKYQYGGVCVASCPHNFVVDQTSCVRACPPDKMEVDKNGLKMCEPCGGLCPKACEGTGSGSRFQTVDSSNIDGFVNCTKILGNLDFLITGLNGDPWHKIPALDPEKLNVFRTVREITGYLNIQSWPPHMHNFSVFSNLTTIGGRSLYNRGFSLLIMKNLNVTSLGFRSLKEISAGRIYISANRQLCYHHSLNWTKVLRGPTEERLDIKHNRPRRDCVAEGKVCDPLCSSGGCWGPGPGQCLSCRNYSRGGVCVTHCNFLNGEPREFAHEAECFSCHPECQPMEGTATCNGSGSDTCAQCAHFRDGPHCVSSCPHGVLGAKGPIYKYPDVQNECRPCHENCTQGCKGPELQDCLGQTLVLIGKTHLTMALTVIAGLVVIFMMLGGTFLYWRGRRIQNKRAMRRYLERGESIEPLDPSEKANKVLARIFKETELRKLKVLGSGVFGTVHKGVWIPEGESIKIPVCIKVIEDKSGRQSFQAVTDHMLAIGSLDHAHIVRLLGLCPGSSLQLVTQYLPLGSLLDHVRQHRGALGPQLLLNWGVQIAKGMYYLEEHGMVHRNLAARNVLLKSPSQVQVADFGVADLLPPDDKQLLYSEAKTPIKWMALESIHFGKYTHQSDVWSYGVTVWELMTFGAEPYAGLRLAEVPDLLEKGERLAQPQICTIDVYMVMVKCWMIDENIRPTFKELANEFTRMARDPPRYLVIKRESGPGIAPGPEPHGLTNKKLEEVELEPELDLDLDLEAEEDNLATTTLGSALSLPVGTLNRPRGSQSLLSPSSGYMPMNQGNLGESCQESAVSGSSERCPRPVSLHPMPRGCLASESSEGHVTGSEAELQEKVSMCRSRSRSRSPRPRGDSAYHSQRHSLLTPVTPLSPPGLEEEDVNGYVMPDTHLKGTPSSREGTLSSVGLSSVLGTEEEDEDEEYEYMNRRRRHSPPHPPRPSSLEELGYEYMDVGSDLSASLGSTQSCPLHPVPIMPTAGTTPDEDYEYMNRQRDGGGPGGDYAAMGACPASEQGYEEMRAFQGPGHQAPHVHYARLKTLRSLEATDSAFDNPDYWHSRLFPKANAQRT
Chain of Serine/threonine-protein kinase MARK2 (Homo sapiens) (Q7KZI7 whole entry): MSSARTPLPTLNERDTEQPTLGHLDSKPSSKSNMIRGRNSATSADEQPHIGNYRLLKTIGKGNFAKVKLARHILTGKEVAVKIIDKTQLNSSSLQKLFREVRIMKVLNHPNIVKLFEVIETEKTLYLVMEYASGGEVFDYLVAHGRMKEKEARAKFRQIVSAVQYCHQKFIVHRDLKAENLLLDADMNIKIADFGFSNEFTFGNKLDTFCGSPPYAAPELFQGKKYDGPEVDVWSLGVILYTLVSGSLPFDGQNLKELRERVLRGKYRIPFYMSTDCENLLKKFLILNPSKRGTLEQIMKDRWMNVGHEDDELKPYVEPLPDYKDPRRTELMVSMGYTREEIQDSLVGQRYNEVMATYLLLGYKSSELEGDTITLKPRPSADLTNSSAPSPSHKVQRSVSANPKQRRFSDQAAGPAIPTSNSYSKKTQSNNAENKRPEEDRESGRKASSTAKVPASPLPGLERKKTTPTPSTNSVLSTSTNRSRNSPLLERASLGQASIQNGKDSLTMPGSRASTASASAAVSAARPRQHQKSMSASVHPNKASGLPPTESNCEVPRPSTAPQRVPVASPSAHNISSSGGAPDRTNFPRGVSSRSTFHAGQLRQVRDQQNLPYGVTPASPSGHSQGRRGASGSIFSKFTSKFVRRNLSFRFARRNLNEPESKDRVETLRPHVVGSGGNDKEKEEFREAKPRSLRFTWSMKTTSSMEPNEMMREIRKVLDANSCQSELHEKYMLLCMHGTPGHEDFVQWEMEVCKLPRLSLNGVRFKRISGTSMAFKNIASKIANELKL
Chain of Serine/threonine-protein kinase 26 (Q9P289 2-416 limits assumed): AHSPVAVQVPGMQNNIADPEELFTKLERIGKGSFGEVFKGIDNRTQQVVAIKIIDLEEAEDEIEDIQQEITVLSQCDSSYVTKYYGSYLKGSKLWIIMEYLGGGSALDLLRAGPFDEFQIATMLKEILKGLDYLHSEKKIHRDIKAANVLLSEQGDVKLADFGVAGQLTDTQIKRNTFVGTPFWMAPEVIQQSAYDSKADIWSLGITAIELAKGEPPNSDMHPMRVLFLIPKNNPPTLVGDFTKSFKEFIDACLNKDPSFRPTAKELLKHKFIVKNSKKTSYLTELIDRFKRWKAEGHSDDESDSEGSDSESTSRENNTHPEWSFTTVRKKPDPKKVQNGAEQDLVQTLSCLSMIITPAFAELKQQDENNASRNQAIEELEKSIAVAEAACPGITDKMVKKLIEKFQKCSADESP
Chain of BDNF/NT-3 growth factors receptor (Homo sapiens) (Q16620 32-822 limits assumed): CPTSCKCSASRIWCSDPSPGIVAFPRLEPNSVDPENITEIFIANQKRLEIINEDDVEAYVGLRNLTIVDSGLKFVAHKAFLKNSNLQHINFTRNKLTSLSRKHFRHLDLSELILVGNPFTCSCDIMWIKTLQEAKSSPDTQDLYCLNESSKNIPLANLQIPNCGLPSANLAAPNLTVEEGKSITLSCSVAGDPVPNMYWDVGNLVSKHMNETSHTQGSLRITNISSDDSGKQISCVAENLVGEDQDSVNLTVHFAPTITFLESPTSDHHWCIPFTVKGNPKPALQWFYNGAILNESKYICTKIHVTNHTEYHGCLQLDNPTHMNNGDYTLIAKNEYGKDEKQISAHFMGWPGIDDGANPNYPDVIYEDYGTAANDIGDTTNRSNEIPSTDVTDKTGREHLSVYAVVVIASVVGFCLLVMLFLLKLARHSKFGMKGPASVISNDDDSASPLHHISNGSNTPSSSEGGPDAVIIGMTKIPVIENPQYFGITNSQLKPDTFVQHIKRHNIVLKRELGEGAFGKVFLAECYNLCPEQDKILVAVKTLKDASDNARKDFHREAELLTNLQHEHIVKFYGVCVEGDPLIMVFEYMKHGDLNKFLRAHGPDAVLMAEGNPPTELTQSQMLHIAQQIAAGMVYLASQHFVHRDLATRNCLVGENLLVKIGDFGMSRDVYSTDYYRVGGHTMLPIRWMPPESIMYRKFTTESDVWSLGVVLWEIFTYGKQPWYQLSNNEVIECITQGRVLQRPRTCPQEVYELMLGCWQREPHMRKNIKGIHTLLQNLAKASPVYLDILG

COc1cc(N(C)c2ccnc3ccc(C(F)(F)F)cc23)cc(OC)c1OC
% binding [1]: 99%

CC(=O)Nc1cccc(-n2c(=O)n(C3CC3)c(=O)c3c(Nc4ccc(I)cc4F)n(C)c(=O)c(C)c32)c1
% of control [2]: 120%

CC[C@@H]1[C@H](F)C(=O)N[C@@H]1COc1nccc2cc(C(N)=O)c(OC)cc12 [ZIMLOVISERTIB]
% of inhibition ([3]; at 0.01 µM): -6.8% | % of inhibition ([3]; at 0.04 µM): -5.9% | % of inhibition ([3]; at 0.2 µM): -9.3% | % of inhibition ([3]; at 1 µM): 4% | % of inhibition ([3]; at 5 µM): 11.1% | % of inhibition ([4]; at 0.01 µM): 1% | % of inhibition ([4]; at 0.04 µM): -8.9% | % of inhibition ([4]; at 0.2 µM): -9.3% | % of inhibition ([4]; at 1 µM): 2.6% | % of inhibition ([4]; at 5 µM): 6.3%

CNC(=O)Nc1ccc(-c2nc(N3CC4CCC(C3)O4)c3cnn(C4CCC5(CC4)OCCO5)c3n2)cc1
% of control [5]: 100% | % of inhibition [6]: 3%

COc1cc(Nc2nc(C)cc(-c3cnn4nc(OC)ccc34)n2)cc(C(F)(F)F)c1
% of control [7]: 96%

COCC(=O)NC/C=C/c1ccc2ncnc(Nc3ccc(Oc4ccc(C)nc4)c(C)c3)c2c1 [CP-724714]
% of control [8]: 76%

C=CC(=O)Nc1cc(-n2c(=O)ccc3cnc4ccc(-c5ccc(NS(C)(=O)=O)cc5)cc4c32)ccc1C
% of control ([9]; at 1 µM): 100% | % of control ([9]; at 10 µM): 100% | % of control [10]: 74%

CN1Cc2nccc(-c3cn(C)nc3-c3ccc(F)cc3)c2C1=O
% of inhibition [11]: 94%
